Results on eight compounds are retold here after publication PMC6474809 (Cell chemical biology, 2019).

Series [1] deals with T1, H. influenzae NfsB (Haemophilus influenzae, UniProt Q57431). Briefly: Michaelis-Menten kinetics by NADPH oxidation. It is filed as biochemical.
Series [2] concerns the target T1, H. influenzae NfsB.
The target in series [3] is T1, H. influenzae NfsB. The experiment in a line: NAD. Type of series: biochemical.
Series [4] concerns the target T1, H. influenzae NfsB. The experiment in a line: inhibition of chloramphenicol reduction by purified enzyme, monitored at […] nm. Type of series: biochemical.
Series [5] has as its target T1, H. influenzae NfsB. The experiment in a line: TLC of flavin released from heat-denatured purified enzyme. Type of series: binding.
For series [6], the target named is T1, H. influenzae NfsB. The source holds these as a separate data set.
Series [7] deals with O=C(N[C@H](CO)[C@H](O)c1ccc([N+](=O)[O-])cc1)C(Cl)Cl. Briefly: purified protein. It is filed as biochemical, Haemophilus influenzae. The note with it: FMN, NADPH.

T1 sequence (Q57431 whole entry): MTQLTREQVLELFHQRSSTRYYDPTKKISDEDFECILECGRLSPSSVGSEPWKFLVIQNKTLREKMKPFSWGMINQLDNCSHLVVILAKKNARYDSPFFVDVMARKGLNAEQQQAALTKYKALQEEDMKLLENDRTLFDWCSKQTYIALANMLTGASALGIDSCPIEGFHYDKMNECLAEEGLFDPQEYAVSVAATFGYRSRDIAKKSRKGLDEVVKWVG

For the compound `O=[N+]([O-])c1cccc(O)c1` [3-nitrophenol], on H. influenzae NfsB [1], the “Michaelis-Menten kinetics by NADPH oxidation (kcat/KM)” value is 61800 M⁻¹ s⁻¹.
As for `O=[N+]([O-])c1ccc(O)cc1` [4-nitrophenol], the “enzyme turnover monitored at 450 nm; kcat/KM not determined” value on H. influenzae NfsB [2] is “All three of these compounds also acted as substrates, with menadione showing relatively high activity and 4-nitrophenol showing relatively low”.
As for `NC(=O)C1=CN([C@@H]2O[C@H](COP(=O)(O)OP(=O)(O)OC[C@H]3O[C@@H](n4cnc5c(N)ncnc54)[C@H](OP(=O)(O)O)[C@@H]3O)[C@@H](O)[C@H]2O)C=CC1` [NADPH], on H. influenzae NfsB [3], the “NAD(P)H oxidation at 340 nm with purified enzyme” value was “requires NADPH as a cofactor and does not utilize NADH”.
As usually defined, the IC50 is the concentration needed to halve the response being measured. Compound `O=c1oc2ccccc2c(O)c1Cc1c(O)c2ccccc2oc1=O` [dicoumarol] had an IC50 on H. influenzae NfsB [4] of 120 µM.
For `Cc1cc2nc3c(=O)[nH]c(=O)nc-3n(C[C@H](O)[C@H](O)[C@H](O)COP(=O)(O)O)c2cc1C` [flavin mononucleotide], at H. influenzae NfsB [5], the “TLC of flavin released from heat-denatured purified enzyme” value is “tightly binds a flavin cofactor, most likely flavin mononucleotide (FMN)”.
Consider `CC1=CC(=O)c2ccccc2C1=O` [menadione], for which, on H. influenzae NfsB [1], the “Michaelis-Menten kinetics by NADPH oxidation (kcat/KM)” value amounted to 79340 M⁻¹ s⁻¹.
Take `O=C1CN(/N=C/c2ccc([N+](=O)[O-])o2)C(=O)N1` [nitrofurantoin]: the “Michaelis-Menten kinetics at 420 nm (kcat/KM)” value at H. influenzae NfsB [6] was found to be 242890 M⁻¹ s⁻¹.
What is called Km is the substrate concentration at which the rate is half of its maximum. For “H. influenzae NfsB (Haemophilus influenzae Rd KW20)”, in series [7], the Km worked out at 500 µM.
